Tested on: MDA-MB-231
Assay: alamar-blue cell viability / cytotoxicity of PEI, doxorubicin and mixtures
Type: cell-based, human
Description: All cells were maintained at 37° C. in a humidified incubator with 5% CO2. MDA-MB-231 growing in the DMEM medium were harvested by trypsin-EDTA, and an initial concentration of 1×106 and further dilutions were made and seeded into wells of a 96-well plate (100 μL for each well). The medium without cells was used as negative control, and the plate was incubated for 18 h to allow cell attachment. Then another 100 μL, medium with desirable concentration drug were added into the well. After 24 h and 48 h incubation, 22 μL of alamar-blue (0.5 mg per mL) was added to each well. The absorbance was measured after further 4 h incubation at 530 nm and 590 nm using PowerwaveXPS plate reader. The plate was also incubated for the following 24 hours to measure the maximum dye reduction. Percentage reduction of alamar-blue is typically calculated using equation (1):
[formula] where At, An and Ac are recorded absorbance of test wells for test group, negative control group and positive control group.
Referring to FIG. 2, the cell viability is shown as a function of the molecular weight of the cationic polymer. […] All cells were maintained at 37° C. in a humidified incubator with 5% CO2. MDA-MB-231, 4T1 and HUVECs, HCC-1806, Hs-587T, MCF-7 cells growing in the log phase of growth were harvested by trypsin-EDTA, and an initial concentration of 1×10^6 and further dilutions were made and seeded into wells of a 96-well plate (100 μL, for each well). The medium without cells was used as negative control, and the plate was incubated for 18 h to allow cell attachment. Then another 100 μL medium with desirable concentration drug were added into the well. After 24 h and 48 h incubation, 22 μL, of alamar-blue (0.5 mg per mL) was added to each well. The absorbance was measured after further 4 h incubation at 530 nm and 590 nm using Powerwave XPS plate reader. The plate was also incubated for the following 24 hours to measure the maximum dye reduction. Percentage reduction of alamar-blue is typically calculated using equation (1).

## COc1cccc2c1C(=O)c1c(O)c3c(c(O)c1C2=O)C[C@@](O)(C(=O)CO)C[C@@H]3O[C@H]1C[C@H](N)[C@H](O)[C@H](C)O1 [doxorubicin]
FIG. 1, drug concentrations between 0 μM and 5 μM
  cell viability: approximately 70%
FIG. 2, 0.3 to 0.6 μg doxorubicin per well, 0 μg of PEI
  cell viability: 60-70%
FIG. 3 line 304, doxorubicin less than 5 μM
  cell viability: about 70%

Reference: patent US10391112B2, “Cationic polymers as co-drugs for chemotherapeutic agents” (Northeastern University, priority 2015, dated 2019)
